Results: patent US20110171312A1, “MODIFIED THERAPEUTIC PEPTIDES, METHODS OF THEIR PREPARATION AND USE” (Nektar Therapeutics, priority 2008, published 2011)
Several values for one entry are separate records, joined by “and”; a condition that tells them apart may be missing. Identical values can stand only once. Entries after “also recorded” stand apart in the source; their conditions may differ. Like-named read-outs stand apart in the source and are kept apart here.

Key:
Sprague-Dawley rats [1] = details: for dose adequate to reduce blood glucose to the target (40-60 mg/dl): insulin mass; for Cmin (minimum blood glucose concentration) / Tmin (time to Cmin): 15 μg/animal
Source text: The first phase established a dose of the compound required to achieve a target blood glucose reduction. This target blood glucose reduction was chosen to be the minimum reduction that is clearly recognizable as different from the resting blood glucose concentration.
The second phase examined the pharmacokinetics/pharmacodynamics of the molecule when administered to rats at the selected dose over an observation time sufficient for the glucose to return to baseline.
These experiments were conducted on male adult Sprague-Dawley rats of approximately 0.30-0.40 kg. Animals were obtained pre-cannulated with a jugular vein catheter (JVC) for blood sampling and, in the case of IV administration, and additional femoral vein catheter (FVC).
Intravenous administration of compounds was made via a femoral catheter in a volume of 300 μl.
Sample Collection was performed as follows. Blood samples of approximately 0.50 mL were collected from the JVC using a 1 mL syringe at each time point. A new syringe was used for each time point along with precautions to prevent contamination and carry-over.
The glucose monitoring was conducted as follows. Approximately 20 μL of whole blood was touched to the end of the glucose test strip of 2 Glucometer Elite glucose monitors for a duplicate determination of blood glucose concentrations. If there was a discrepancy of greater than 5 mg/dl, a third reading was taken.
The sample for compound quantitation in plasma, which served as basis for the PK analysis, was collected and processed as follows. The volume of blood remaining after the glucose measurement (˜480 μL) was anticoagulated with K2 EDTA and centrifuged to recover plasma. The plasma was collected and stored at −80° C. until analysis.

Sprague-Dawley rats [2] = test: Glucose depression after intravenous injection of PEG-insulins (Example 23); type: in vivo, rat; details: for glucose depression (in vivo activity) in comparison to regular insulin: 20 μg/animal equivalent insulin mass (FIG. 8a)
Experimental: The API concentration in the stock solutions was determined post-dosing by UV/VIS spectroscopy. All stock solutions were prepared on the study initiation day.
Whole blood (0.5 mL) was collected from the jugular vein catheter and placed into serum separator tubes at pre-dose (2 to 0.25 hours prior to dosing) and post-dose time points. After the sample was collected, an equivalent volume of PBS was administered, the catheter lumen was filled with 100 μL of heparinized PBS, and the cannula hub was plugged with a cotton applicator tip soaked in heparinized saline.
A small amount of whole blood was placed on the glucose test strip for blood glucose determination. The remainder of the sample was separated into serum by centrifugation for 10 minutes at 13,000 rpm. The serum was drawn off into a new Eppendorf tubes. The serum samples were stored at −20° C. on dry ice until shipped, and then stored at −80° C. until analysis.
The test and control insulin-containing articles were dissolved in saline (pH 7.4) and injected as an IV bolus into Sprague-Dawley rats. Prior to administration, the rats were lightly anesthetized for approximately 3-5 minutes in a Plexiglas induction chamber by inhaled 3.0-5.0% isoflurane mixed with air. The femoral vein catheter (FVC) was used for IV drug administration and the jugular vein catheter (JVC) was used for venous blood sampling to ensure no cross-contamination occurred.
A 1 mL syringe was fitted into the cannula, and the heparinized phosphate buffered saline solution present in the catheter lumen was removed by drawing back on the syringe plunger until blood filled the hub of the syringe. The heparinized phosphate buffered saline solution and the syringe were discarded and replaced by a new 1 mL syringe containing the appropriate IV dosing volume. The IV dose was then slowly and completely administered to the animal. The cannula was immediately flushed with 300 μL of phosphate buffered saline after dose administration. Blood was withdrawn from an indwelling catheter over a three-hour period. All drug doses refer to equivalent insulin mass delivered to the animals.
This study was designed to obtain a broad sense of the activity of the compounds rather than serve as an accurate activity measurement.

rats = test: Glucose suppression / pulmonary absorption after intratracheal administration of PEG-insulins (Example 23); type: in vivo, rat; details: for glucose suppression profile compared to insulin control: 20-80 μg/animal equivalent insulin mass (FIGS. 8b, 9b, 10-12)
Source text: In the sections below, an effort is made to compare PEG-insulin preparations with respect to PEG molecular weight, PEGylation site, and chemistry. However, an accurate comparison was not always possible due to the presence of multiple PEG-insulin species in the preparations. Also, it could be that observed differences are due to differences in binding affinity to the receptor rather than absorption per se.
PEGylated insulins were examined that were all derivatized in positions B1 or B29 using the same PEG active agent (SPA). The actual synthetic routes to generate specific B1 or B29 isomers were different. Data for B1-5000-PEG-Insulin, 750-lot 2-PEG-insulin and 2K-lot 2-PEG-Insulin and 750-lot 5-PEG-insulin; their respective glucose suppression curves are shown in FIGS. 10 and 8b.
The results are illustrated in FIG. 11.
The impact of acetylation with PEGylation on insulin absorption through the lungs was evaluated. Acetylated derivatives were produced at different levels of acetylation and were all PEGylated at the same position (B1) with the same MW PEG (750 Da): 750-lot A1- and 750-lot A2-PEG-insulin (details are given in Table 2). The results are illustrated in FIG. 12.

Sprague-Dawley rats [3] = test: Dose determination and PK/PD after intratracheal instillation (Example 25); type: in vivo, rat; details: for dose adequate to reach the target nadir glucose suppression: intratracheal instillation, dose ranging leg; for Cmin (minimum blood glucose concentration) / Tmin (time to Cmin): intratracheal, 180, 240, 640 μg/animal for 2K, 3K, 5K (Table 6)
Experimental: A spectrometric measurement of compound concentration was also made.
Intratracheal Instillation (IT) was conducted as follows.
Sample Collection was performed as follows.
The glucose monitoring was conducted as follows.
The experimental protocol was modified for the analysis of the acetylated compounds. This resulted from the intent to use LC/MS-MS for the quantitation of compound concentrations in plasma. This analytical technique requires a larger volume of plasma to permit concentration of the sample and achieve the requisite increase in sensitivity. […] The protocol was therefore modified to increase the number of animals by two-fold and split the samples between these two cohorts.
To explore the data further, the PK profiles after IT doses were deconvoluted using IV PK parameters using the Wagner Nelson deconvolution procedure, to generate the cumulative absorption profile (FIG. 32).

beagle dogs = details: glucose clamp
Experimental: The glucose clamp technique involved the continuous infusion of a 50% glucose solution at a rate such that normal serum glucose values were maintained throughout the experiment (e.g., normal range is 80-100 mg/dl).
Glucagon was also infused to maintain normal serum physiologic concentrations. […] Blood was withdrawn from an indwelling catheter over a 10-hour period.

Sprague-Dawley rats [4] = test system: Sprague-Dawley rats
Experimental: The liquid formulation was prepared in Dulbecco's phosphate buffered saline (DPBS) for IT administration. […] The dose was administered at a fixed volume of 300 μL; as a result, dosing solutions were prepared within 2 hours of administration by dilution of the stock solution.
The lowest dose that met the criteria of achieving nadir blood glucose concentrations between approximately 40 and 60 mg/dL in the first 4 hours after compound administration was chosen for the second leg of the study.
The test system included 19 pre-cannulated (jugular vein catheter (JVC)) adult male fasted (˜15-20 hours) Sprague-Dawley rats (Hilltop Lab Animals, Inc., Scottdale, Pa.). Ten animals weighing between 0.285-0.308 kg were used for the dose-ranging leg and 9 animals weighing between 0.288-0.313 kg were used for the PK/PD leg. Prior to dosing, the rats were lightly anesthetized by inhaled Isoflurane (Abbott Laboratories, Chicago, Ill.). […] Two readings of whole blood glucose concentration (mg/dL) per time point were made using a Glucometer Elite glucose monitor (Bayer Corp., Elkhart, Ind.). […] Pharmacodynamic analysis was performed using Microsoft Office Excel 2003.

[5] = rats, IT, 80 μg/animal, Group 1
[6] = rats, IT, 160 μg/animal, Group 1
[7] = rats, IT, 200 μg/animal, Group 1
[8] = rats, IT, 270 μg/animal, Group 1
[9] = rats, IT, 270 μg/animal, Group 2 (PK/PD leg)
[10] = rats, IT, 381 μg/animal, Group 1
[11] = rats, IT, 381 μg/animal, Group 1, euthanized at 4 hr

With “AKZO insulin: reference compound AKZO NOBEL Human Insulin [reference compound]” the “time by which blood glucose was back to baseline” value (Sprague-Dawley rats [1]; rats, intravenous (AKZO insulin 1-6 μg/rat; PEG-B1 insulins 15 μg/rat)) was no more than 90 min, the “Glucose Tmin” value (Sprague-Dawley rats [1]; rats, intravenous, all doses 1-6 μg/rat) was 15 min and the “dose adequate to reduce blood glucose to the target (40-60 mg/dl)” value (“dose adequate to reduce blood glucose” for short) (Sprague-Dawley rats [1]; rats, intravenous) was 3 μg/rat.

In the case of “N^αA1,N^εB29-{3-[methoxy(ethoxy)2K]propionyl}insulin [2000-PEG-insulin]”, the “glucose depression (in vivo activity) in comparison to regular insulin” value (“glucose depression (in vivo activity)” for short) (Sprague-Dawley rats [2]) is reported as “deviations were significant”.

“N^αA1,N^εB29-{3-[methoxy(ethoxy)550]propionyl}insulin [550-lot 1-PEG-insulin]” was tested, and the “glucose suppression profile compared to insulin control” value (rats) was “much of the glucose suppression activity of insulin is restored”.

For “N^αA1,N^εB29-{3-[methoxy(ethoxy)750]propionyl}insulin [750-lot 3-PEG-insulin]”, the “glucose suppression profile compared to insulin control” value (rats) was “prolonged systemic glucose suppression compared to the insulin control”.

“N^αA1,N^εB29-{3-[methoxy(ethoxy)750]propionyl}insulin [750-lot 4-PEG-insulin]” was tested, and the “reduction of insulin activity” value (Sprague-Dawley rats [2]; 80 μg insulin/animal (FIG. 9a)) was “about 50%”.

“N^αB1-{3-[methoxy(ethoxy)2K]propionyl}insulin [PEG2000-B1 Insulin]” was tested, and the “Cmin (minimum blood glucose concentration)” value (Sprague-Dawley rats [1]; rats, intravenous) was 42 ± 13 mg/dL, the “Tmin (time to Cmin)” value (Sprague-Dawley rats [1]; rats, intravenous) was 33 ± 15 min and the “Cmin (minimum blood glucose concentration)” value (Sprague-Dawley rats [1]; rats, intravenous, listed as PEG2000-B1) was 42 mg/dL. The “dose adequate to reduce blood glucose” value (Sprague-Dawley rats [1]; rats, intravenous) was 15 μg/rat, the “dose adequate to reach the target nadir glucose suppression” value (Sprague-Dawley rats [3]) was 180 μg/rat and the “Cmin (minimum blood glucose concentration)” value (Sprague-Dawley rats [3]) was 38 ± 9 mg/dL. The “Tmin (time to Cmin)” value (Sprague-Dawley rats [3]) was 290 ± 171 min and the “time up to which blood glucose is still suppressed (not back to baseline)” value (“time up … (not back to baseline)” below) (Sprague-Dawley rats [3]; intratracheal, selected dose) was no less than 9 h.

With “N^αB1-{3-[methoxy(ethoxy)3K]propionyl}insulin [PEG3000-B1 Insulin]” the “Cmin (minimum blood glucose concentration)” value (Sprague-Dawley rats [1]; rats, intravenous) was 36 ± 11 mg/dL, the “Tmin (time to Cmin)” value (Sprague-Dawley rats [1]; rats, intravenous) was 24 ± 12 min and the “Cmin (minimum blood glucose concentration)” value (Sprague-Dawley rats [1]; rats, intravenous, listed as PEG3000-B1) was 36 mg/dL. For the same substance, the “dose adequate to reduce blood glucose” value (Sprague-Dawley rats [1]; rats, intravenous) was 15 μg/rat, the “dose adequate to reach the target nadir glucose suppression” value (Sprague-Dawley rats [3]) was 240 μg/rat and the “Cmin (minimum blood glucose concentration)” value (Sprague-Dawley rats [3]) was 45 ± 18 mg/dL. The “Tmin (time to Cmin)” value (Sprague-Dawley rats [3]) was 170 ± 96 min and the “time up … (not back to baseline)” value (Sprague-Dawley rats [3]; intratracheal, selected dose) was no less than 9 h.

For “N^αB1-{3-[methoxy(ethoxy)5K]propionyl}insulin [PEG5000-B1 Insulin]”, the “time glucose remains below euglycemic levels” value (rats; 40 μg/animal, no data beyond 6 hours) was “at least 6 hours”, the “glucose suppression profile compared to insulin control” value (rats) was “little systemic glucose suppression compared to the insulin control” and the “time by which plasma concentration falls below the limit of quantitation” value (Sprague-Dawley rats [1]; rat, in vivo, iv) was no more than 6 h. The “Cmin (minimum blood glucose concentration)” value (Sprague-Dawley rats [1]; rats, intravenous) was 42 ± 9 mg/dL, the “Tmin (time to Cmin)” value (Sprague-Dawley rats [1]; rats, intravenous) was 24 ± 8 min and the “Cmin (minimum blood glucose concentration)” value (Sprague-Dawley rats [1]; rats, intravenous, listed as PEG5000-B1) was 42 mg/dL. For the same substance, the “dose adequate to reduce blood glucose” value (Sprague-Dawley rats [1]; rats, intravenous) was 15 μg/rat, the “dose adequate to reach the target nadir glucose suppression” value (Sprague-Dawley rats [3]) was 640 μg/rat and the “Cmin (minimum blood glucose concentration)” value (Sprague-Dawley rats [3]) was 37 ± 3 mg/dL. The “Tmin (time to Cmin)” value (Sprague-Dawley rats [3]) was 480 ± 0 min, the “time to reach Cmin (Tmin)” value (Sprague-Dawley rats [3]; intratracheal, selected dose) was 8 h and the “time up … (not back to baseline)” value (Sprague-Dawley rats [3]; intratracheal, selected dose) was no less than 16 h. For the same substance, the “glucose depression (in vivo activity)” value (Sprague-Dawley rats [2]) was “smaller glucose depression in comparison to regular insulin”.

For “N^αB1-{3-[methoxy(ethoxy)750]propionyl}insulin [750-lot 2-PEG-insulin]”, the “time at which glucose suppression reaches nadir” value (rats; 80 μg insulin equivalent) was 6 h, the “time of return of glucose to baseline” value (rats; 80 μg insulin equivalent) was no less than 12 h and the “glucose suppression profile compared to insulin control” value (rats) was “prolonged glucose suppression profile; also recorded: prolonged systemic glucose suppression compared to the insulin control”. The “glucose depression (in vivo activity)” value (Sprague-Dawley rats [2]) was “smaller glucose depression in comparison to regular insulin”.

“N^εB29-{3-[methoxy(ethoxy)2K]propionyl}insulin [B29 2K-2-PEG-insulin]” was tested, and the “infused glucose required to maintain basal levels, versus insulin alone” value (beagle dogs; powder inhalation) was “required less infused glucose to maintain basal levels” and the “duration for which glucose infusion was necessary” value (beagle dogs; powder inhalation (FIG. 13a)) was 420 min.

For “N^εB29-{3-[methoxy(ethoxy)750]proprionyl}insulin [B29 750-lot 5-PEG-insulin]”, the “glucose suppression profile compared to insulin control” value (rats; listed as B29 750 analog) was “glucose depression profile similar to the control”.

For “di-N^αA1,N^εB29-(acetyl)-B1-{4-[methoxy(ethoxy)2K]butyryl}insulin [PEG2K-Ald-DiAc Insulin]”, the “hypoglycemia (<20 mg/dL blood glucose concentration)” value (Sprague-Dawley rats [4]; rat, in vivo) was “caused hypoglycemia”, the “Cmin, individual animals” value (Sprague-Dawley rats [4]; [5]) was 78 mg/dL and 85 mg/dL and the “Cmin, mean” value (Sprague-Dawley rats [4]; [5]) was 81 mg/dL. The “Tmin, mean” value (Sprague-Dawley rats [4]; [5]) was 4.50 h, the “Cmin, individual animals” value (Sprague-Dawley rats [4]; [6]) was 86 mg/dL and 82 mg/dL and the “Cmin, mean” value (Sprague-Dawley rats [4]; [6]) was 84 mg/dL. The “Tmin, individual animals” value (Sprague-Dawley rats [4]; [6]) was 6 h, the “Tmin, mean” value (Sprague-Dawley rats [4]; [6]) was 6.00 h and the “Cmin, individual animals” value (Sprague-Dawley rats [4]; [7]) was 109 mg/dL and 37 mg/dL. For the same substance, the “Cmin, mean” value (Sprague-Dawley rats [4]; [7]) was 73 mg/dL, the “Tmin, mean” value (Sprague-Dawley rats [4]; [7]) was 3.50 h and the “animals in which target glucose suppression was not achieved” value (Sprague-Dawley rats [4]; rats, IT, 270 μg, PK/PD leg) was “three out of nine”. The “Cmin, individual animals” value (Sprague-Dawley rats [4]; [8]) was 31 mg/dL and 35 mg/dL, the “Cmin, mean” value (Sprague-Dawley rats [4]; [8]) was 33 mg/dL and the “Tmin, individual animals” value (Sprague-Dawley rats [4]; [8]) was 3 h and 8 h. The “Tmin, mean” value (Sprague-Dawley rats [4]; [8]) was 5.50 h, the “Cmin, mean” value (Sprague-Dawley rats [4]; [9]) was 52 mg/dL and 52 ± 29 mg/dL and the “Tmin, mean” value (Sprague-Dawley rats [4]; [9]) was 5.80 h and 5.8 ± 3.5 h. For the same substance, the “Cmin, mean” value (Sprague-Dawley rats [4]; [10]) was 20 mg/dL, the “Tmin, mean” value (Sprague-Dawley rats [4]; [10]) was 4.00 h and the “Cmin, individual animals” value (Sprague-Dawley rats [4]; [11]) was 20 mg/dL and 19^a mg/dL. For the same substance, the “Tmin, individual animals” value (Sprague-Dawley rats [4]; [11]) was 4 h, the “pharmacological effect on mean blood glucose versus saline (historic data)” value (Sprague-Dawley rats [4]; rats, IT, 200-270 μg/animal) was “does have a pharmacological effect” and the “dose selected for the PK/PD leg (nadir blood glucose about 40-60 mg/dL)” value (Sprague-Dawley rats [4]; rats, IT, dose range finding leg) was 270 µg.
